# “Also recorded” adds a separate entry of the source.
# Legend:
# Assay type in all cases: cell-based, human
# dendritic cells (DC) [1] = experiment: Dendritic cell penetration, confocal microscopy; settings: data not shown
# PBMC [2] = experiment: PBMC activation, TNFα and IL-1β ELISA; settings: PBMC stimulated 24 hr, TNFα in media
# Experimental: Buffy coat fractions were obtained from healthy blood donors at the Singapore Health Sciences Authority, with Institutional ethics approval, and PBMC were isolated using Ficoll-Paque (GE Healthcare). To isolate monocytes, PBMC were re-suspended to 1×10^7 cells/ml in the RPMI medium contained 5% (v/v) BCS and incubated for 1 hr in T75 flasks (20 ml/flask). Monocytes that adhered were harvested. To culture macrophages and DC [Cao, W., et al., Blood 107: 2777-2785, (2006), incorporated herein by reference], monocytes were resuspended to 1×10^6 cells/ml and cultured in 6-well plates (2 ml/well). Macrophages were cultured by adding M-CSF to 20 ng/ml and DC were cultured with 20 ng/ml GM-CSF and 40 ng/ml IL-4. M-CSF, GM-CSF and IL-4 were obtained from R&D Systems (Mineapolis, Minn.). Cells were cultured for 6 days with half of the media being replenished every two days.
# Purified proteins in PBS (30 μg/ml) were coated in triplicates in 96-well plates (50 μl/well) for 12 hr and PBMC (3×10^6 cells/ml), monocytes (1×10^6 cells/ml), macrophages (0.5×10^6 cells/ml) or DC (0.5×10^6 cells/ml) were re-suspended in macrophage serum-free medium containing penicillin and streptomycin and cultured for 24 hr in these plates at 100 μl/well. Where TLR ligands were used to stimulate these cells, they were added to the media: LPS (500 ng/ml for DC and macrophages and 10 ng/ml for PMBC and monocytes, InvivoGen), flagellin (1 μg/ml, InvivoGen), lipoteichic acid (LTA, 10 μg/ml). Cell activation was determined by measuring TNFα and IL-1β in the culture media using ELISA kits (Invitrogen).
# PBMC [3] = experiment: Peptide binding to and penetration of PBMC, flow cytometry; settings: PBMC, peptide 200 μg/ml, 1 hr at 4° C.
# How it was run: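 PBMC (3×10^6/ml, serum-free macrophage medium) incubated 1 h with biotinylated-detected peptides at 200 μg/ml, at 37 °C or 4 °C. Streptavidin-AF488 flow cytometry with viability dye, with or without permeabilization to separate surface binding from internalization; monocytes, T and B cells gated separately.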
# [4] = system: autologous CD4 and CD8 T cells; experiment: Antigen-loaded DC co-culture with autologous lymphocytes, proliferation; settings: DC:T 1:5, 2 weeks co-culture, CellTrace Violet
# Experimental: PBMC were isolated from healthy blood donors from which monocytes were isolated to culture DC and the remaining cells (mostly lymphocytes) were stored frozen as a source of autologous lymphocytes. DC were then incubated for 24 hr with P2+G, IPA1E2 or the IPA1E2-P2+G fusion polypeptide (SEQ ID NO: 58) in round bottom 96-well plates (5×10^4 cells/well) without adding additional adjuvants. The frozen lymphocytes were revived and labelled with CellTrace Violet (2.5 μM) for 10 min at 37° C. and then added to the DC wells at 2.5×10^5 cells/well (DC:T ratio=1:5). After 2 weeks of co-culture, the proliferation of CD4+ and CD8+ T cell and CD19+ B cell was analyzed by flow cytometry.
# dendritic cells (DC) [5] = experiment: DC maturation, surface markers by flow cytometry; settings: 200 μg/ml, 48 hr
# Experimental: In some experiments, to detect surface proteins on cultured DC, cells were harvested at day 6 and re-suspended at 1×10^5/ml in macrophage serum free medium (Thermo Fisher Scientific, cat #12065074). Cells were incubated for 1 hr on ice with fluorescent antibodies specific for CD14 (PE), CD1a (PE), or isotype-matched IgG. Cells were washed and analysed by flow cytometry. The harvested DC were also resuspended in the medium at 5×10^4/ml and cultured for 48 hr with LPS (0.5 μg/ml), P2M6 (200 μg/ml) or, as a control, PBS. Cells were then incubated with fluorescently tagged antibodies specific for MHC class II, CD40, CD80, CD83, CD86, and corresponding isotype controls. Cells were analysed by flow cytometry.
# NCL-P2 was previously shown to activate DC as judged by TNFα induction [Wu, S., et al., Cell Death Dis 12: 477 (2021)]. Whether P2+G effectively activates these cells into mature antigen-presenting cells (APC) for effective T cell activation has not been examined. To this end, DC were stimulated for 48 hr with P2+G (200 μg/ml) or, as a positive control, LPS (0.5 μg/ml). As a negative control, DC were cultured without specific stimulation by adding equivalent volumes of PBS. DC were cultured from monocytes and were typically CD14^lo/− CD1a^hi [Cao, W., et al., Blood 107: 2777-2785 (2006)]. Cells were examined for surface expression of MHC class II, CD40, CD80, CD83 and CD86.
# dendritic cells (DC) [6] = experiment: Dendritic cell penetration, confocal microscopy
# Experimental: DC were harvested and cultured overnight on glass coverslips. The cells were first incubated for 1, 5, 15, 30 or 60 min with P2M6 (200 μg/ml) at 4° C. and then fixed in 4% (w/v) paraformaldehyde (PFA) for 20 min. Cells were permeabilized for 30 min in 0.1% (w/v) saponin and then incubated for 1 hr with streptavidin-AF488 (50 μg/ml). Cells were then mounted for imaging analysis. Alternatively, P2M6 was pre-incubated for 1 hr on ice with streptavidin-AF488 at 50 μg/ml and the peptide-streptavidin complexes were at 1/10 dilution incubated with DC for 1, 5, 15, 30 or 60 min at 4° C. and the cells were, after washing, directly mounted without fixation or permeabilization.
# In another experiment set up, DC (2×10^5/ml) were incubated for 1 hr at 4° C. with P2M6 at different concentrations (10, 25, 50, 100, or 200 μg/ml). Cells were fixed and permeabilized to incubate for 1 hr with streptavidin-AF488 (50 μg/ml). Cells were washed and mounted for imaging analysis. Alternatively, Different concentrations of P2M6 ([…]) were pre-incubated for 1 hr on ice with streptavidin-AF488 (500 μg/ml). The preformed complexes were at 1/10 dilutions incubated with DC for 1 hr at 4° C. The cells were, after washing, directly mounted without fixation or permeabilization.
# All cells were mounted using the VectaShield mounting medium containing DAPI (Vector Laboratories). Cells were analyzed using the FluoView FV3000 confocal microscope equipped with a 100× oil objective (aperture 1.45) and Cool/SNAP HQ2 image acquisition camera (Olympus). Images were captured with the FV-ASW 1.6b software and analyzed using the Imaris software (Bitplane AG).
sequence,measurement,setting,value
GGFGGRGGGRGGRGGFGGRGGRGGFGGRGGFRGGRGG (NCL-P2+G),carrying ovalbumin into DC cytoplasm,dendritic cells (DC) [1],carried ovalbumin into DC cytoplasm
same,adjuvant (alarmin) activity compared with NCL-P2,PBMC [2],significantly higher alarmin activity
same,increase in adjuvant (alarmin) activity compared with NCL-P2,PBMC [2],3 fold
same,CPP activity compared with NCL-P2,PBMC [3],slightly higher CPP activity
same,CPP activity compared with NCL-P2,PBMC [3]; listed as P2+G,slightly increased their CPP activities
same,T cell proliferation / activation induced by peptide-loaded DC,[4],might not induce significant T cell activation to itself
same,"DC maturation (MHC class II, CD40, CD80, CD83, CD86)",dendritic cells (DC) [5],effectively activated DC maturation
same,carrying cargo protein streptavidin into DC cytoplasm,dendritic cells (DC) [6],can carry cargo proteins across the cell membrane into the cytoplasm; also recorded: carry a cargo protein streptavidin into the DC cytoplasm
same,time of incubation within which DC were penetrated,"dendritic cells (DC) [6]; 200 μg/ml, 4° C.",≤ 1 min
same,DC penetration over time,"dendritic cells (DC) [6]; 1, 5, 15, 30 and 60 min, 4° C.",increased progressively from 5 to 60 min
same,DC penetration at 10 μg/ml of P2+G,dendritic cells (DC) [6]; 1 hr at 4° C.,not detectable; also recorded: no detectable DC penetration
same,DC penetration at 25 μg/ml of P2+G,dendritic cells (DC) [6]; 1 hr at 4° C.,low level of DC penetration
same,time to saturation of DC penetration,"dendritic cells (DC) [6]; P2+G 200 μg/ml, on ice",30 min
same,intracellular localisation in DC,dendritic cells (DC) [6]; confocal microscopy,penetrated into the nucleoli faster than it penetrated into the cytoplasm
same,change of intracellular pool in DC with increasing P2+G concentration,"dendritic cells (DC) [6]; free peptide 25 to 200 μg/ml, streptavidin-bound 10 to 100 μg/ml",increased following increasing concentrations
